As a reminder, the IC50 is the point on the concentration scale where inhibition reaches its midpoint.

Details of series [1]: method as in PMID 8761384. The following applies: standalone drug; cited from earlier work.
The test system of another series is nuclear export. Set-up: method as in PMID 20055390, PMID 26833854. As to conditions: cited from earlier work.
Series [2] addresses T1, CRM1 (Homo sapiens, UniProt O14980). As to the kind of experiment: Streptavidin pull-down from HeLa cell lysate with LC-MS/MS identification. The following applies: HeLa cells, 100 ng mL–1, 5 h; control additionally incubated with an excess of 1. Set-up: endogenous in cells; host or cells: HeLa cells (treated live with biotin conjugate 36, then lysed). The format is binding. The procedure: To verify that this activity was indeed CRM1-mediated, HeLa cells were incubated with 36 at a concentration of 100 ng mL^–1 for 5 h and lysed.
The cell lysate was incubated with streptavidin-coupled sepharose beads, and bound proteins were eluted, digested and identified by LC-MS/MS.
Streptavidin-Pull-down with Ratjadone-biotin and identification of exportin by LC-MSMS A chemical pull down was performed to verify binding of ratjadone to Crm1. HeLa cells were treated with ratjadone-biotin, ratjadone or both at 0.1μg/ml final concentration for 5h. Cells were detached by scraping, washed twice in PBS and lysed in MPER-buffer (Thermo Fisher, Waltham, USA) supplemented with complete protease inhibitor (Roche, Mannheim, Germany). After 5min incubation on ice the lysate was centrifuged (20min, 13000rpm, 4°C) and the supernatant was incubated with streptavidin sepharose high performance (GE healthcare, Freiburg, Germany) overnight at 4°C. The next day beads were washed twice with PBS and resuspended in elution buffer (Roth) and heated to 95°C for 10min. 5% were tested on WesternBlot with a biotin-specific antibody.
Figure S12: Gel of α-Streptavidin pulldown experiment: Identification of protein band in the eluat of Biotin-PEG3-16S- […]

Series [3] has as its target T1, CRM1. As to the kind of experiment: Nuclear export inhibition, fluorescent translocation biosensor in recombinant HeLa cells. The format is cell-based. Set-up: This cellular assay uses HeLa cells that express a recombinant fusion protein; endogenous in cells; host or cells: HeLa cells stably expressing the NLS-GST-GFP-RevNES translocation biosensor (HeLaRevBio). The following applies: nuclear export inhibition IC50, HeLa cells expressing translocation biosensor, 1 h incubation.

For another series, the system named is KB-3.1 cells. Briefly: Flow cytometry, fluorescence intensity per cell. The series is classed as cell-based, human. The following applies: KB-3.1, 1 µM, 30 min, 37 °C.
Another series concerns the target folate receptor-α, FRα. Set-up: method as in ref 31 = [31]; Lu Y. Low P. S. Adv. Drug Delivery Rev. 2012 64 342 352. As to conditions: read-out: folate affinity of the receptors; cited from earlier work.

T1 sequence (O14980 whole entry): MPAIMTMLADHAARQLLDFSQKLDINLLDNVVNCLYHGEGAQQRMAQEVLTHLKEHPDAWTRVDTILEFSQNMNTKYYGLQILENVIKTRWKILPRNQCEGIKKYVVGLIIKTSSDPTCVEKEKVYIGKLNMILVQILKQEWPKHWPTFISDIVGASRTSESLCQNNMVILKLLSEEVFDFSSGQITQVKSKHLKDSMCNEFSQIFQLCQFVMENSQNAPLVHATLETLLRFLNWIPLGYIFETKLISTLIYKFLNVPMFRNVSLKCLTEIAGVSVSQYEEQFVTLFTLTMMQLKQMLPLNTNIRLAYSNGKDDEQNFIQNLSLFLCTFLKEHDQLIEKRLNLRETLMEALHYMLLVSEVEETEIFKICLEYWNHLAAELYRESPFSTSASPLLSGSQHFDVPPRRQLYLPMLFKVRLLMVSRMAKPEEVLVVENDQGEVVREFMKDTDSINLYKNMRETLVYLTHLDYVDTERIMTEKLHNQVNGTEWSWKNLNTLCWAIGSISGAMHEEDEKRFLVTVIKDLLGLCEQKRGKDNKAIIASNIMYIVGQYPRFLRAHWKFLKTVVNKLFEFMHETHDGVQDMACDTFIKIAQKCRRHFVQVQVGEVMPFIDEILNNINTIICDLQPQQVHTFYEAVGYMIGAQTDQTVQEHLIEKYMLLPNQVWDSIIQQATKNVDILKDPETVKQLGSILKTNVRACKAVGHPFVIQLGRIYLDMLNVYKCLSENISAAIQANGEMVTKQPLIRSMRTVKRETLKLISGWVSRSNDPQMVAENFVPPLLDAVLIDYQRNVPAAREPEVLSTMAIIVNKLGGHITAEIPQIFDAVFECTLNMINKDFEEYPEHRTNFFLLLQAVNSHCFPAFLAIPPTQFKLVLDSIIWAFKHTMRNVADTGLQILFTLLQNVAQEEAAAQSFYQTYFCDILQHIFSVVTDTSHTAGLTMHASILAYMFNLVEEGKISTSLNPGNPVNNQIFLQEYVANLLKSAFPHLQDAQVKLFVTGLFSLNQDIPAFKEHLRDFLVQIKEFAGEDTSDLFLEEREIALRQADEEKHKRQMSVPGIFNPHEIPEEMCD
Experimental for KB-3.1 cells: Analysis of cell labeling with fluorescein-labeled conjugates
All cell lines were maintained as recommended by the American Type Culture Collection in DMEM or RPMI
containing 5% glutamine (Thermo Fisher Scientific, Waltham, USA) supplemented with 10% FBS (Thermo
Fisher Scientific, Waltham, USA). For flow cytrometric analysis cells were detached by trypsin and the
density was adjusted to 2 x 10^6 cells/ml. The cell suspension was incubated with compounds at 1µM final
concentration for 30min at 37°C, followed by two washing steps in PBS. For analysis of fluorescein intensity
a LSRFortessa™ with FACSDiva™ software (BD Biosciences, Heidelberg, Germany) with the 488nm laser in
combination with 525/50nm band pass filter was used. Data was evaluated using FlowJo software
(FLOWJO LLC, Oregon, US).

As for `CCC(=C/[C@H](C)C/C=C/C(C)=C/[C@@H](C)C(=O)[C@@H](C)[C@H](O)[C@@H](C)C/C(C)=C/C(=O)O)/C=C/[C@@H]1OC(=O)C=C[C@@H]1C` [Compound 5, leptomycin B], the “outcome of early clinical trials” value in series [1] was “failed due to its high systemic toxicity”.
`CCC(=C/C(C)C)/C=C/[C@H]1CC=CC(=O)O1` [Compound 8]: the “concentration at which nuclear export is inhibited” value in the series with nuclear export is on record as 25 nM.
In the case of `CC=CC1OC(C(C=CC=C(C)CC(C)C=C(C)C=CC2CC=CC(=O)O2)NC(=O)OCCc2cn(CCOCCOCCOCCNC(=O)CCCCC3SCC4NC(=O)NC43)nn2)CC(O)C1C` (stereo not drawn) [Compound 36, biotin-PEG3-16S-aminoratjadone], the “CRM1 identified in streptavidin pull-down” value at CRM1 [2] was “clearly identified in this manner and strongly enriched”. On CRM1 [3], the IC50 was found to be 152 nM.
On to `O=C1OC2(c3ccc(O)cc3Oc3cc(O)ccc32)c2ccccc21` [fluorescein], for which, in the series with KB-3.1 cells, the “fluorescence intensity per cell” value is “did not label the cells”.
Take `Nc1nc(=O)c2nc(CNc3ccc(C(=O)N[C@@H](CCC(=O)O)C(=O)O)cc3)cnc2[nH]1` [folate, Folic acid]: the Kd on folate receptor-α, FRα was […].

The values are drawn from article PMC6540907, “The nuclear export inhibitor aminoratjadone is a potent effector in extracellular-targeted drug conjugates” (Chemical Science, 2019).
